Test results as given in PubChem BioAssay AID330 (DTP/NCI, 2004).
Where “and” joins values, the source holds several entries; their conditions need not be identical. Identical values can stand only once. Inconclusive results and toxic doses are left out. The calls were made as follows: active = survival T/C of 150% or more; inactive = T/C below 125% in these data.

Test system: P388 leukemia ip, CD2F1 mice, survival T/C
Assay: NCI In Vivo Anticancer Drug Screen. Data for tumor model P388 Leukemia (intraperitoneal) in CD2F1 (CDF1) mice
Settings: endpoint: median survival time, higher = longer survival
In short: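 Mice carrying the transplanted tumor received test compound or vehicle. Survival was recorded in each group, and the value is the treated-group measurement divided by that of the vehicle-treated control group.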

[1] = dose: 100.0 mg/kg/injection, schedule: Q01DX009 (ip), vehicle: saline with Tween-80
[2] = dose: 100.0 mg/kg/injection, schedule: Q04DX003 (ip), vehicle: saline with Tween-80
[3] = dose: 200.0 mg/kg/injection, schedule: Q04DX003 (ip), vehicle: saline with Tween-80
[4] = dose: 400.0 mg/kg/injection, schedule: Q04DX003 (ip), vehicle: saline with Tween-80
[5] = dose: 50.0 mg/kg/injection, schedule: Q01DX009 (ip), vehicle: saline with Tween-80
[6] = dose: 200.0 mg/kg/injection, schedule: Q01DX009 (ip), vehicle: saline with Tween-80
[7] = dose: 50.0 mg/kg/injection, schedule: Q01DX009 (ip), vehicle: saline
[8] = dose: 100.0 mg/kg/injection, schedule: Q01DX009 (ip), vehicle: saline
[9] = dose: 100.0 mg/kg/injection, schedule: Q04DX002 (ip), vehicle: Klucel (hydroxypropylcellulose) (HPC)
[10] = dose: 200.0 mg/kg/injection, schedule: Q04DX002 (ip), vehicle: Klucel (hydroxypropylcellulose) (HPC)
[11] = dose: 400.0 mg/kg/injection, schedule: Q04DX002 (ip), vehicle: Klucel (hydroxypropylcellulose) (HPC)

Measured: T/C

Nc1cc(N)cc(Cc2ccccc2)c1
inactive: [1] 100 % of control | [2] 100 % of control | [3] 109 % of control | [4] 95 % of control

CC(NC(=O)OCc1ccccc1)C(=O)Oc1ccccc1[N+](=O)[O-] (stereo not given)
inactive: [5] 96 % of control | [1] 103 % of control | [6] 105 % of control

OC(c1ccncc1)c1cc(Cl)ccc1Cl (stereo not given)
inactive: [5] 94 % of control | [1] 100 % of control | [6] 108 % of control

O=C(O)CS(=O)(=O)CCS(=O)(=O)CC(=O)O
inactive: [7] 107 % of control | [8] 105 % of control | dose: 200.0 mg/kg/injection, schedule: Q01DX009 (ip), vehicle: saline 88 % of control

CC(C)=CC[P+](CCC[P+](CC=C(C)C)(c1ccccc1)c1ccccc1)(c1ccccc1)c1ccccc1
inactive: dose: 3.12 mg/kg/injection, schedule: Q01DX005 (ip), vehicle: saline with Tween-80 106 % of control | dose: 6.25 mg/kg/injection, schedule: Q01DX005 (ip), vehicle: saline with Tween-80 104 % of control | dose: 12.5 mg/kg/injection, schedule: Q01DX005 (ip), vehicle: saline with Tween-80 98 % of control

CP1(=S)CC[C@H]2C3=C(CC[C@@H]21)CC(=O)CC3 (stereo not given in full)
inactive: dose: 50.0 mg/kg/injection, schedule: Q01DX005 (ip), vehicle: saline + Tween-80 + alcohol 106 % of control | dose: 100.0 mg/kg/injection, schedule: Q01DX005 (ip), vehicle: saline + Tween-80 + alcohol 103 % of control | dose: 200.0 mg/kg/injection, schedule: Q01DX005 (ip), vehicle: saline + Tween-80 + alcohol 97 % of control

N#Cc1ccc(Br)cc1[N+](=O)[O-]
inactive: dose: 0.78 mg/kg/injection, schedule: Q01DX009 (ip), vehicle: Klucel (hydroxypropylcellulose) (HPC) 106 % of control | dose: 1.56 mg/kg/injection, schedule: Q01DX009 (ip), vehicle: Klucel (hydroxypropylcellulose) (HPC) 102 % of control | dose: 3.12 mg/kg/injection, schedule: Q01DX009 (ip), vehicle: Klucel (hydroxypropylcellulose) (HPC) 100 % of control and 96 % of control

CC(C)(O)[C@@H]1CC(=O)[C@]2(C)[C@H](CC[C@@]3(C)C(c4ccoc4)OC(=O)[C@H]4O[C@]432)[C@@]1(C)/C=C/C(=O)O (stereo not given in full)
inactive: dose: 0.75 mg/kg/injection, schedule: Q01DX009 (ip), vehicle: saline + alcohol 98 % of control | dose: 1.5 mg/kg/injection, schedule: Q01DX009 (ip), vehicle: saline + alcohol 100 % of control | dose: 3.0 mg/kg/injection, schedule: Q01DX009 (ip), vehicle: saline + alcohol 97 % of control | dose: 6.0 mg/kg/injection, schedule: Q01DX009 (ip), vehicle: saline + alcohol 99 % of control

Cc1nc(=O)oc(NC(C)C)c1Cl
inactive: dose: 25.0 mg/kg/injection, schedule: Q01DX009 (ip), vehicle: saline with Tween-80 100 % of control and 107 % of control | [5] 106 % of control and 95 % of control | [7] 110 % of control | [1] 113 % of control and 97 % of control | [8] 103 % of control | [6] 99 % of control and 116 % of control

C=C(C(=O)N(C(C)C)C(C)C)C(C)CC(C)C(=O)N(C(C)C)C(C)C (stereo not given)
inactive: dose: 50.0 mg/kg/injection, schedule: Q04DX002 (ip), vehicle: Klucel (hydroxypropylcellulose) (HPC) 99 % of control | [9] 104 % of control | [10] 107 % of control | [11] 104 % of control

NC(=O)CCS(=O)(=O)Cc1ccccc1
inactive: dose: 50.0 mg/kg/injection, schedule: Q01DX005 (ip), vehicle: saline with Tween-80 98 % of control | dose: 100.0 mg/kg/injection, schedule: Q01DX005 (ip), vehicle: saline with Tween-80 95 % of control | dose: 200.0 mg/kg/injection, schedule: Q01DX005 (ip), vehicle: saline with Tween-80 93 % of control

O=C(N/N=C/c1ccc(/C=N/NC(=O)c2cccnc2)cc1)c1cccnc1
inactive: [5] 102 % of control | [1] 96 % of control | [6] 93 % of control

CCOc1c(N=Nc2ccc(Cl)cc2Cl)c(C)nn1C(=S)S
inactive: dose: 60.0 mg/kg/injection, schedule: Q01DX005 (ip), vehicle: Klucel + Tween-80 90 % of control | dose: 120.0 mg/kg/injection, schedule: Q01DX005 (ip), vehicle: Klucel + Tween-80 103 % of control | dose: 240.0 mg/kg/injection, schedule: Q01DX005 (ip), vehicle: Klucel + Tween-80 100 % of control

O=C(OCCO)c1ccccc1O
inactive: [2] 95 % of control | [3] 104 % of control | [4] 95 % of control

CC1(C)CC(OP(=O)(OC2CC(C)(C)N(O)C(C)(C)C2)OC2CC(C)(C)N(O)C(C)(C)C2)CC(C)(C)N1O
inactive: [9] 92 % of control | [10] 99 % of control | [11] 104 % of control

CCCCOC(=O)CCC(CC(=O)OCCCC)C(=O)OCCCC (stereo not given)
inactive: dose: 50.0 mg/kg/injection, schedule: Q01DX005 (ip), vehicle: saline 103 % of control | dose: 100.0 mg/kg/injection, schedule: Q01DX005 (ip), vehicle: saline 103 % of control | dose: 200.0 mg/kg/injection, schedule: Q01DX005 (ip), vehicle: saline 105 % of control

O=C(CN1CCOCC1)c1cc2c(c3ccccc13)CCCC2
inactive: dose: 50.0 mg/kg/injection, schedule: Q01DX005 (ip), vehicle: Klucel (hydroxypropylcellulose) (HPC) 94 % of control | dose: 100.0 mg/kg/injection, schedule: Q01DX005 (ip), vehicle: Klucel (hydroxypropylcellulose) (HPC) 99 % of control | dose: 200.0 mg/kg/injection, schedule: Q01DX005 (ip), vehicle: Klucel (hydroxypropylcellulose) (HPC) 96 % of control

COc1ccc(C(=O)CC2(O)C(=O)Nc3ccccc32)cc1O (stereo not given)
inactive: dose: 60.0 mg/kg/injection, schedule: Q01DX005 (ip), vehicle: saline with Tween-80 105 % of control | dose: 120.0 mg/kg/injection, schedule: Q01DX005 (ip), vehicle: saline with Tween-80 102 % of control | dose: 240.0 mg/kg/injection, schedule: Q01DX005 (ip), vehicle: saline with Tween-80 102 % of control
